From US20240398812A1 (Caraway Therapeutics, Inc., priority 2021, published 2024)

Key:
human TRPML1 = human TRPML1 (Homo sapiens, UniProt Q9GZU1); experiment: Fluorescent TRPML1 assay (Fluo4-AM calcium fluorescence, HEK-293 Trex cells); format: cell-based
Experimental: (§1) HEK-293 Trex cells were stably transfected with a construct consisting of the human coding sequence for TRPML1 cloned into the tet-inducible plasmid pCDNA5 T/O. Mutations were introduced into the TRPML1 sequence to facilitate expression on the cell surface (Silvia Vergarajauregui, Rosa Puertollano Traffic. 2006 March; 7 (3): 337-353). Briefly, the cells are cultured in 150 mm round tissue culture dishes containing 20 mL of media. The day before the assay the cells are rinsed with DPBS —Ca—Mg and then treated briefly with Trypsin-EDTA. The Trypsin-EDTA is diluted with growth media, and cells are counted. 38×10^6 cells are re-plated into 150 mm round tissue culture dishes in media containing 0.5 ug/mL doxycycline to induce expression of hTRPML1.
(§2) The day of the experiment cells are lifted from the plates as above and collected by centrifugation. The cells are then suspended in dye loading buffer consisting of Ringer's solution supplemented with 0.1% Pluronic Acid and 1 micromolar Fluo4-AM dye. Cells are loaded for ˜60 minutes in the dark with occasional mixing. The cells are collected by centrifugation, the loading media aspirated, and the cells resuspended in 25 mL Ringer's solution and incubated ˜60 minutes in the dark. The cells are again collected by centrifugation, rinsed in Ringer's Solution and resuspended to 0.2×10^6 cells/mL in modified Ringer's solution containing 10 mM calcium.
(§3) Compounds are dissolved to a concentration of 10 millimolar with DMSO. Compound plates are created by dispensing compounds into 384 well black wall clear bottom plates (Greiner 781091). Positive and negative controls are included on each plate. Typically, different amounts of each compound are tested ranging from 100 nanoMoles (20 micromolar final concentration) decreasing in half-log steps to 31 picoMoles (6 nanomolar final concentration). Each concentration is typically tested in triplicate.
(§4) 50 microliters of dye-loaded cells are dispensed into each well of the compound assay plate created above. The fluorescence in each well is then determined with an excitation wavelength of 480 nm and an emission wavelength of 540 nm using either a Molecular Devices SpectraMax multimode plate reader or a Hamamatsu FDSS/uCell plate imager.
(§5) The resulting fluorescence for each well is exported as an ascii file and loaded into our LIMS for analysis. The percent activity of each compound at each concentration is determined by comparison to the positive and negative control wells included in each plate.
(§6) EC50 values were calculated using a non-linear regression of Prism. In the table, “A” indicates an EC50 of less than 100 nM, “B” indicates an EC50 range from 100 nM to 500 nM; “C” indicates an EC50 range from 500 nM to 2 μM; and “D” indicates an EC50 greater than 2 μM.

TRPML3 = biological target: T1, TRPML3 (Homo sapiens, UniProt Q8TDD5); experiment: Fluorescent TRPML3 assay (as for TRPML1); format: cell-based
T1 construct: expressed in transfected cells
T1 sequence (Q8TDD5 1-553): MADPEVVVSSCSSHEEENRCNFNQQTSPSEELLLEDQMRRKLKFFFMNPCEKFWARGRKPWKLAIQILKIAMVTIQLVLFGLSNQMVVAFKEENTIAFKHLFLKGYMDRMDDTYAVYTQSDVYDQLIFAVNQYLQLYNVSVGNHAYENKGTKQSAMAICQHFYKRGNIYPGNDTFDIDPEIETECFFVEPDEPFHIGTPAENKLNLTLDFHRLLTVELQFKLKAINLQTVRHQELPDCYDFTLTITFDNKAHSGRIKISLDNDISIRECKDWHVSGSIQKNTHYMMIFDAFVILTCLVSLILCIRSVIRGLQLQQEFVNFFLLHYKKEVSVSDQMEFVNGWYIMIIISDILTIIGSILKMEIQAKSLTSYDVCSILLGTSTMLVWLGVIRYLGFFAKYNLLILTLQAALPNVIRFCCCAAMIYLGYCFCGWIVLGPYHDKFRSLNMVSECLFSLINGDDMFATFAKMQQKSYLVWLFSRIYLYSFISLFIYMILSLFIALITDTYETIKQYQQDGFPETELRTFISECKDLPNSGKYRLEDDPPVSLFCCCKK
Experimental: as §1, §2, §3, §4, §5
Assays for TRPML2 and TRPML3 were performed as above for TRPML1, by substituting the appropriate TRPML2 or TRPML3 subtype for the TRPML1.
as §6

Sequence of human TRPML1 (Q9GZU1 whole entry L15A/L16A/L577A/L578A, form open): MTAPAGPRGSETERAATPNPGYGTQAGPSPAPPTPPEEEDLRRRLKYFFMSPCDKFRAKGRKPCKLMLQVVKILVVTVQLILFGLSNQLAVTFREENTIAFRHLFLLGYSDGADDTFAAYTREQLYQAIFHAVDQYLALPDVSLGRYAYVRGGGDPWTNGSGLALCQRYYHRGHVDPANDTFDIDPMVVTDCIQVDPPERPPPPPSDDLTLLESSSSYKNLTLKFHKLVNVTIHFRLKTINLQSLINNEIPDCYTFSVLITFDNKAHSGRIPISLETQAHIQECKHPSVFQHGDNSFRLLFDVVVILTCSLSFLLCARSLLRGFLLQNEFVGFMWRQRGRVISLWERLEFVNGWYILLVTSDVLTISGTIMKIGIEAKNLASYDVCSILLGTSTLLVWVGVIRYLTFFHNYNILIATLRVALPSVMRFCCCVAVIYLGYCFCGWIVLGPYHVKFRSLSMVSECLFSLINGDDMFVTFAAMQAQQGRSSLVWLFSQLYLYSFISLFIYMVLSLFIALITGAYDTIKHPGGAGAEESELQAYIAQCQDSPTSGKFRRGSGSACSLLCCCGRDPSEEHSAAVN

Compound	EC50 (human TRPML1; Table 3, compounds 101-177)	EC50 (TRPML3; Table 3, compounds 101-177)	EC50 (human TRPML1; Table 3, compounds 201-283)	EC50 (TRPML3; Table 3, compounds 201-283)
C[C@@H]1CN(c2ncnc3c2c(C(F)(F)F)cn3-c2cncc(C#N)c2)[C@@H](C)CN1C(=O)C(C)(C)C [Compound 224, 5-(4-((2S,5R)-2,5-dimethyl-4-pivaloylpiperazin-1-yl)-5-(trifluoromethyl)-7H-pyrrolo[2,3-d]pyrimidin-7-yl)nicotinonitrile]			< 100 nM	500 to 2000 nM
C[C@@H]1CN(c2ncnc3c2c(C2CCC2)cn3-c2cccc(F)c2)[C@@H](C)CN1C(=O)C1(F)CC1 [Compound 249, ((2R,5S)-4-(5-cyclobutyl-7-(3-fluorophenyl)-7H-pyrrolo[2,3-d]pyrimidin-4-yl)-2,5-dimethylpiperazin-1-yl)(1-fluorocyclopropyl)methanone]			100 to 500 nM	500 to 2000 nM
C[C@@H]1CN(c2nccc3c2c(N2CCC2)cn3-c2cccc(F)c2)[C@@H](C)CN1C(=O)C(C)(C)C [Compound 226, 1-((2R,5S)-4-(3-(azetidin-1-yl)-1-(3-fluorophenyl)-1H-pyrrolo[3,2-c]pyridin-4-yl)-2,5-dimethylpiperazin-1-yl)-2,2-dimethylpropan-1-one]			< 100 nM	< 100 nM
C[C@H]1CN(C(=O)C(C)(C)C)CCN1c1ncnc2c1c(N1CCC1)cn2-c1cccc(F)c1 [Compound 216, (S)-1-(4-(5-(azetidin-1-yl)-7-(3-fluorophenyl)-7H-pyrrolo[2,3-d]pyrimidin-4-yl)-3-methylpiperazin-1-yl)-2,2-dimethylpropan-1-one]			< 100 nM	> 2000 nM
Cc1nccnc1-c1cn(-c2cccc(Cl)c2)c2ncnc(N3C[C@@H](C)N(C(=O)C(C)C)C[C@@H]3C)c12 [Compound 175, 1-((2R,5S)-4-(7-(3-chlorophenyl)-5-(3-methylpyrazin-2-yl)-7H-pyrrolo[2,3-d]pyrimidin-4-yl)-2,5-dimethylpiperazin-1-yl)-2-methylpropan-1-one]	500 to 2000 nM	> 2000 nM		
CC(C)C(=O)N1C[C@H](C)N(c2ncnc3c2c(N2CCC2)cn3-c2cc(C#N)ccn2)C[C@H]1C [Compound 275, 2-(5-(azetidin-1-yl)-4-((2S,5R)-4-isobutyryl-2,5-dimethylpiperazin-1-yl)-7H-pyrrolo[2,3-d]pyrimidin-7-yl)isonicotinonitrile]			< 100 nM	100 to 500 nM
CC(C)C(=O)N1CC2(CCN(c3ncnc4c3c(-c3ccccc3F)cn4-c3cc(C#N)ccn3)C2)C1 [Compound 101, 2-(5-(2-fluorophenyl)-4-(2-isobutyryl-2,6-diazaspiro[3.4]octan-6-yl)-7H-pyrrolo[2,3-d]pyrimidin-7-yl)isonicotinonitrile]	> 2000 nM	500 to 2000 nM		
CC(C)C(=O)N1CCN(c2ncnc3c2c(-c2ccccc2F)cn3-c2cc(C#N)ccn2)CC12CC2 [Compound 145, 2-(5-(2-fluorophenyl)-4-(4-isobutyryl-4,7-diazaspiro[2.5]octan-7-yl)-7H-pyrrolo[2,3-d]pyrimidin-7-yl)isonicotinonitrile]	100 to 500 nM	< 100 nM		
C[C@@H]1CN(c2ncnc3c2c(C2CCC2)cn3-c2cc(C#N)ccn2)[C@@H](C)CN1C(=O)C1(F)CC1 [Compound 236, 2-(5-cyclobutyl-4-((2S,5R)-4-(1-fluorocyclopropane-1-carbonyl)-2,5-dimethylpiperazin-1-yl)-7H-pyrrolo[2,3-d]pyrimidin-7-yl)isonicotinonitrile]			< 100 nM	< 100 nM
C[C@H]1CN(C(=O)C(C)(C)O)CCN1c1ncnc2c1c(C1CC1)cn2-c1cc(C#N)ccn1 [Compound 160, (S)-2-(5-cyclopropyl-4-(4-(2-hydroxy-2-methylpropanoyl)-2-methylpiperazin-1-yl)-7H-pyrrolo[2,3-d]pyrimidin-7-yl)isonicotinonitrile]	100 to 500 nM	> 2000 nM		
CCN(CC)c1cn(-c2cccc(Cl)c2)c2ncnc(N3CCN(C(=O)C(C)C)C[C@@H]3C)c12 [Compound 147, (S)-1-(4-(7-(3-chlorophenyl)-5-(diethylamino)-7H-pyrrolo[2,3-d]pyrimidin-4-yl)-3-methylpiperazin-1-yl)-2-methylpropan-1-one]	500 to 2000 nM	500 to 2000 nM		

More lines, now with the values ahead:

EC50 (human TRPML1; Table 3, compounds 101-177)	EC50 (TRPML3; Table 3, compounds 101-177)	EC50 (human TRPML1; Table 3, compounds 201-283)	EC50 (TRPML3; Table 3, compounds 201-283)	Compound
100 to 500 nM	100 to 500 nM			N#Cc1ccnc(-n2cc(-c3ccccc3F)c3c(N4CCN(C(=O)C5CC5)CC4)ncnc32)c1 [Compound 110, 2-(4-(4-(cyclopropanecarbonyl)piperazin-1-yl)-5-(2-fluorophenyl)-7H-pyrrolo[2,3-d]pyrimidin-7-yl)isonicotinonitrile]
100 to 500 nM	100 to 500 nM			C[C@H]1CN(C(=O)CC(C)(C)C)CCN1c1ncnc2c1c(C1CC1)cn2-c1cc(C#N)ccn1 [Compound 136, (S)-2-(5-cyclopropyl-4-(4-(3,3-dimethylbutanoyl)-2-methylpiperazin-1-yl)-7H-pyrrolo[2,3-d]pyrimidin-7-yl)isonicotinonitrile]
100 to 500 nM	500 to 2000 nM			C[C@H]1CN(C(=O)C(C)(C)O)CCN1c1ncnc2c1c(N1CCC1)cn2-c1cc(C#N)ccn1 [Compound 162, (S)-2-(5-(azetidin-1-yl)-4-(4-(2-hydroxy-2-methylpropanoyl)-2-methylpiperazin-1-yl)-7H-pyrrolo[2,3-d]pyrimidin-7-yl)isonicotinonitrile]
< 100 nM	< 100 nM			CC(C)(O)C(=O)N1CCN(c2ncnc3c2c(-c2ccccc2F)cn3-c2cc(C#N)ccn2)C2(CC2)C1 [Compound 174, 2-(5-(2-fluorophenyl)-4-(7-(2-hydroxy-2-methylpropanoyl)-4,7-diazaspiro[2.5]octan-4-yl)-7H-pyrrolo[2,3-d]pyrimidin-7-yl)isonicotinonitrile]
100 to 500 nM	100 to 500 nM			C[C@H]1CN(C(=O)C2CC2)CCN1c1ncnc2c1c(-c1ccccc1)cn2-c1cc(C#N)ccn1 [Compound 123, (S)-2-(4-(4-(cyclopropanecarbonyl)-2-methylpiperazin-1-yl)-5-phenyl-7H-pyrrolo[2,3-d]pyrimidin-7-yl)isonicotinonitrile]
100 to 500 nM	< 100 nM			CC(C)C(=O)N1CCN(c2ncnc3c2c(-c2ccccc2F)cn3-c2cc(C#N)ncn2)[C@@H](C)C1 [Compound 152, (S)-6-(5-(2-fluorophenyl)-4-(4-isobutyryl-2-methylpiperazin-1-yl)-7H-pyrrolo[2,3-d]pyrimidin-7-yl)pyrimidine-4-carbonitrile]
< 100 nM	< 100 nM			CC(C)C(=O)N1CCN(c2ncnc3c2c(-c2ccccc2)cn3-c2cc(C#N)ccn2)C[C@H]1C [Compound 119, (R)-2-(4-(4-isobutyryl-3-methylpiperazin-1-yl)-5-phenyl-7H-pyrrolo[2,3-d]pyrimidin-7-yl)isonicotinonitrile]
< 100 nM	< 100 nM			CC(C)C(=O)N1C[C@H](C)N(c2ncnc3c2c(-c2ccccc2F)cn3-c2cc(Cl)ccn2)C[C@H]1C [Compound 168, 1-((2R,5S)-4-(7-(4-chloropyridin-2-yl)-5-(2-fluorophenyl)-7H-pyrrolo[2,3-d]pyrimidin-4-yl)-2,5-dimethylpiperazin-1-yl)-2-methylpropan-1-one]
< 100 nM	100 to 500 nM			C[C@@H]1CN(c2ncnc3c2c(-c2ccccc2F)cn3-c2cc(F)ccn2)[C@@H](C)CN1C(=O)C(C)(C)O [Compound 169, 1-((2R,5S)-4-(5-(2-fluorophenyl)-7-(4-fluoropyridin-2-yl)-7H-pyrrolo[2,3-d]pyrimidin-4-yl)-2,5-dimethylpiperazin-1-yl)-2-hydroxy-2-methylpropan-1-one]
